By IC50 is commonly meant the concentration at which inhibition is half-maximal. Low values mean greater potency, high ones weaker potency.

This note sets out measurements from article PMC7595966, “Scutellarin is Highly Likely to be Responsible for Drug-Drug Interactions Mediated by Hepatic Organic Anion-Transporting Polypeptide1B3” (Pharmaceutical Research, 2020).

One assay addresses T1, hOATP1B3 (Homo sapiens, UniProt Q9NPD5).
T1 construct: gene SLCO1B3
T1 sequence (Q9NPD5 1-702): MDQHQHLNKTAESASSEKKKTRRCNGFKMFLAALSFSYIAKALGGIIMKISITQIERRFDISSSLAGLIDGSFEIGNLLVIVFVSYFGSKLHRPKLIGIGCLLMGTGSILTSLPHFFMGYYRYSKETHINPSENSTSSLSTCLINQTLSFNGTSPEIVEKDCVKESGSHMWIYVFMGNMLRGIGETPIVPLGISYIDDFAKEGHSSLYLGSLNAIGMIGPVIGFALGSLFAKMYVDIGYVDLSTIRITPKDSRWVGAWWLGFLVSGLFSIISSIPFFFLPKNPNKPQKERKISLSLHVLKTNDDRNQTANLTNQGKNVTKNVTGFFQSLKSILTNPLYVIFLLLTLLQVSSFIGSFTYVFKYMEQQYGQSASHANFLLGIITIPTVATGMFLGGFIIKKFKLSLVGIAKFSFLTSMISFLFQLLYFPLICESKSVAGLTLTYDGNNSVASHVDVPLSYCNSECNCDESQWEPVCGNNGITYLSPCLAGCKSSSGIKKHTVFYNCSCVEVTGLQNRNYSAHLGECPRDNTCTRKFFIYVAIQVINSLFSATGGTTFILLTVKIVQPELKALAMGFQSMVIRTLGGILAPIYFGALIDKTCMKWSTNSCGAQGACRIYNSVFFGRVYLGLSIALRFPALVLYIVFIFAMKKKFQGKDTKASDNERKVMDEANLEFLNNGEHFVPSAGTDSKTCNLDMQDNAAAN
Nature of the assay: cell-based.

The next assay has as its target T2, rOATP1B2 (Rattus norvegicus, UniProt Q9QZX8).
T2 construct: gene Slco1b2
T2 sequence (Q9QZX8 1-687): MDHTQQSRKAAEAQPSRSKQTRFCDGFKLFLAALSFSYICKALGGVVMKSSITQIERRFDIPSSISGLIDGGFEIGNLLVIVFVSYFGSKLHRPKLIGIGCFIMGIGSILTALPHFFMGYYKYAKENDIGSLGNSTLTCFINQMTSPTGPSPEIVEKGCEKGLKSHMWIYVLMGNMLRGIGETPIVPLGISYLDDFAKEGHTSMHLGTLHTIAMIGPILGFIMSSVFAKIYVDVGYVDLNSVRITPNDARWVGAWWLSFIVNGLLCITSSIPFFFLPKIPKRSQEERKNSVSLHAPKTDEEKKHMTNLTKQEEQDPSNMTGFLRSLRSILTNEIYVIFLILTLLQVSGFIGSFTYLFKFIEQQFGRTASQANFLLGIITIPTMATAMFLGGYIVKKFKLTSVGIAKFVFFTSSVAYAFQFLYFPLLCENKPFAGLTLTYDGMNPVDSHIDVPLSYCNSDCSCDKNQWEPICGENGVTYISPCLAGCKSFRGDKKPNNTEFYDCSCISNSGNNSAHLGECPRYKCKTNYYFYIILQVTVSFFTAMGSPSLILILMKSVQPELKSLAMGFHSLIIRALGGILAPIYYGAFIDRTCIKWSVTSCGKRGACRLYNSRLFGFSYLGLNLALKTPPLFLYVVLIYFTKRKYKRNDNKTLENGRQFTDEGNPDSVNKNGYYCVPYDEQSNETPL
The assay is described as follows: cell-based.

Structures are written as SMILES.

`O=C(O)[C@H]1O[C@@H](Oc2cc3oc(-c4ccc(O)cc4)cc(=O)c3c(O)c2O)[C@H](O)[C@@H](O)[C@@H]1O` [Scutellarin]: the results for the half-inhibitory concentration (IC50) at hOATP1B3 and at rOATP1B2 were 45.5 ± 6.67 µM and 27.6 ± 3.97 µM, respectively.
